US12103915B2, “TEAD inhibitors and methods of uses thereof” (Insilico Medicine IP Limited, priority 2022, dated 2024)

Experiments:
[1] = Pharmacokinetic profile evaluation in mice; type: in vivo, CD-1 mice; settings: CD-1; mouse, oral administration at 10 mg/kg, plasma
Experimental: Example C: Pharmacokinetic Profile Evaluation
Three CD-1 mice of SPF. (Sino-British SIPPR/BK Lab Animal Ltd, Shanghai.) were intravenously administrated with given compounds (Formulation: 5% DMSO+10% Solutol+85% Saline) or orally gavage administrated with given compounds (Formulation: 5% DMSO+10% Solutol+85% Saline). The blood samples were taken via cephalic vein at timepoints 0.083 h, 0.25 h, 0.5 h, 1 h, 2 h, 4 h, 8 h, and 24 h after intravenous (iv) administration or at timepoints 0.25 h, 0.5 h, 1 h, 2 h, 4 h, 6 h, 8 h, and 24 h after oral gavage administration, 30 μL/time point. Blood samples were placed in tubes containing K2-EDTA and stored on ice until centrifuged. The blood samples were centrifuged at 6800 g for 6 minutes at 2-8° C. within 1 h after collected and stored frozen at approximately −80° C. An aliquot of 20 μL plasma samples were protein precipitated with 400 μL MeOH in which contains 100 ng/mL Verapamil (IS). The mixture was vortexed for 1 min and centrifuged at 18000 g for 10 min. Transfer 400 μL supernatant to 96 well plates. An aliquot of 5 μL supernatant was injected for LC-MS/MS analysis by LC-MS/MS-27 (TQ6500+) instrument. The analytical results were confirmed using quality control samples for intra-assay variation. The accuracy of >66.7% of the quality control samples should be between 80-120% of the known value(s). Standard set of parameters including Area Under the Curve (AUC(0-t)), maximum plasma concentration (Cmax), elimination half-life (T1/2) will be calculated using noncompartmental analysis modules in FDA certified pharmacokinetic program Phoenix WinNonlin 7.0 (Pharsight, USA).

TEAD3 = TEAD3 (Homo sapiens, UniProt Q99594); assay: Thermal shift assay TEAD3; type: binding
TEAD3, sequence (Q99594 whole entry, species assumed): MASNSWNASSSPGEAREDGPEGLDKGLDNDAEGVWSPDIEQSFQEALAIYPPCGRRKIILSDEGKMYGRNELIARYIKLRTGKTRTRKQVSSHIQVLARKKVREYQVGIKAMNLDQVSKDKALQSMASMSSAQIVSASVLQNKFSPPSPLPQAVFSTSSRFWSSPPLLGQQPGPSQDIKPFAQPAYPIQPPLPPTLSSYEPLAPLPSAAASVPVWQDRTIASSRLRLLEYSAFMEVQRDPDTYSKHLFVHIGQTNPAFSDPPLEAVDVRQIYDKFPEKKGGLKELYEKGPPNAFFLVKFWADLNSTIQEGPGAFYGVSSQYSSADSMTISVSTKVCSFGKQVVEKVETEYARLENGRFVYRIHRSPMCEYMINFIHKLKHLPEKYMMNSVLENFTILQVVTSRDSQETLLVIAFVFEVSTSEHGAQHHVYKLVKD
How it was run: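 Compounds at 1 or 10 μM (0.1% DMSO, PBS dilution) mixed with 0.1 mg/ml final TEAD3 and thermal shift dye, then run through a qPCR melt to follow protein unfolding.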

TEAD4 = TEAD4 (Homo sapiens, UniProt Q15561); assay: Thermal shift assay TEAD4; type: binding
TEAD4, sequence (Q15561 whole entry, species assumed): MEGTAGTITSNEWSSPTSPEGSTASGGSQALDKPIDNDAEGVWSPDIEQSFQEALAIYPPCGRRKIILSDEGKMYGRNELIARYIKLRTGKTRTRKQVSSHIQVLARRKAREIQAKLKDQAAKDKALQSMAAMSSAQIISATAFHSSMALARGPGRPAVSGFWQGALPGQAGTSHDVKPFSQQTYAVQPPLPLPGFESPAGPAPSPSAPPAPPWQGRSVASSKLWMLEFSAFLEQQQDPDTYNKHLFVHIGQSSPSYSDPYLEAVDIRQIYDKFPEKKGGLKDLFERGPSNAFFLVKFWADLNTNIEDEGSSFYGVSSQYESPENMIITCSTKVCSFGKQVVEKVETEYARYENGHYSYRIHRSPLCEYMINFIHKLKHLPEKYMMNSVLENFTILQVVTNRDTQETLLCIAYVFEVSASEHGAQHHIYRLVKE
How it was run: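 Compounds tested at 1 and 10 μM (0.1% DMSO, PBS) against TEAD4 protein at 0.1 mg/ml final. Melting followed by thermal shift dye fluorescence during a qPCR instrument ramp.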

TEAD1 = TEAD1 (Homo sapiens, UniProt P28347); assay: Thermal shift assay TEAD1; type: binding
TEAD1, sequence (P28347 whole entry, species assumed): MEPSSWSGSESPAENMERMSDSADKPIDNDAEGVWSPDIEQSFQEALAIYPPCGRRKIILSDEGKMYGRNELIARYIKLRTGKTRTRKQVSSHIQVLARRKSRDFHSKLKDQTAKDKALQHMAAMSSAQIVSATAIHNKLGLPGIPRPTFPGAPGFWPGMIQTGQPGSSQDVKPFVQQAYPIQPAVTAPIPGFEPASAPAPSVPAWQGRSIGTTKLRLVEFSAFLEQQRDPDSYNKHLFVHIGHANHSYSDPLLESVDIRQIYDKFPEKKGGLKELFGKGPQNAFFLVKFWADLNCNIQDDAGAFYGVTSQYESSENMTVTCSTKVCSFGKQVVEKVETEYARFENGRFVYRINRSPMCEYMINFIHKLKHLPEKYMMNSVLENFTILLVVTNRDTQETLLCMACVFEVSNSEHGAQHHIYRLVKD
How it was run: (§1)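 Protein melt reactions contained TEAD1 (0.2 mg/ml final) or TEAD2 (0.08 mg/ml final) plus compound at 1 or 10 μM in 0.1% DMSO. Thermal unfolding was followed by dye fluorescence on a qPCR instrument.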

TEAD2 = TEAD2 (Homo sapiens, UniProt Q15562); assay: Thermal shift assay TEAD2; type: binding
TEAD2, sequence (Q15562 whole entry, species assumed): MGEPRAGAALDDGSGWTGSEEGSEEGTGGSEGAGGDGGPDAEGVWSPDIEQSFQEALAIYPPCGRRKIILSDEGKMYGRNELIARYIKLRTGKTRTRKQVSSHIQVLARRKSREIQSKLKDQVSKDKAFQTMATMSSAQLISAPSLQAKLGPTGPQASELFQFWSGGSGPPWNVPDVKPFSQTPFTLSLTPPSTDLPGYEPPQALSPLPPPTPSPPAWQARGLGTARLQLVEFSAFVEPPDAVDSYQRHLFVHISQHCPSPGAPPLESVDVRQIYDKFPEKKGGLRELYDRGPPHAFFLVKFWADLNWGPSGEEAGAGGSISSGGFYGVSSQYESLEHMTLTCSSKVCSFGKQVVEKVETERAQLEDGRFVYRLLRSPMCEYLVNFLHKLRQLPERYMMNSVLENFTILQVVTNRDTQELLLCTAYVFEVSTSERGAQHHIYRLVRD
How it was run: as §1

NCI-H226 cells = assay: Cell growth assay (CellTiter-Glo); type: cell-based, human; settings: Homo sapiens, NCI-H226, 168 h, 7 days treatment, CellTiter-Glo luminescence, read-out: H226 CTG IC50

Row | AUC(0-t) [1] [ng·h/mL] | Cmax [1] [ng/mL] | half-life [1] [h] | TEAD3 ΔTm (TEAD3) [°C] | TEAD4 ΔTm (TEAD4) [°C] | TEAD1 ΔTm (TEAD1) [°C] | TEAD2 ΔTm (TEAD2) [°C] | IC50 (NCI-H226 cells) [nM] | Compound
1 | 104000 | 9750 | 5.4 | 2.7 | 11.4 | 8.1 | 7 | < 100 | Cn1cc2cc(-c3ccc(C(F)(F)F)cc3)cc(C3C[C@H]3C(=O)O)c2n1 (mixture of isomers) [Example 2]
2 | 676000 | 40100 | 26.4 | 13.1 | 11.8 | 11.6 | 12.7 | 100 to 500 | Cn1cc2cc(Oc3ccc(C(F)(F)F)cc3)cc(C3C[C@H]3C(=O)O)c2n1 (mixture of isomers) [Example 16]
3 | 497000 | 33700 | 26 | 11.7 | 10.1 | 9.2 | 14.2 | 100 to 500 | O=C(O)[C@@H]1CC1c1cc(Oc2ccc(C(F)(F)F)cc2)cc2cccnc12 (mixture of isomers) [Example 17]
4 | 617000 | 41200 | 11.2 | 7.4 | 9.1 | 8.8 | 14 | 100 to 500 | Cn1ncc2c(C3C[C@H]3C(=O)O)cc(Oc3ccc(C(F)(F)F)cc3)cc21 (mixture of isomers) [Example 18]
5 | 31800 | 3180 | 2.2 | 10.9 | 11.3 | 10.2 | 14.2 | < 100 | CNC(=O)[C@H]1C[C@@H]1c1cc(Oc2ccc(C(F)(F)F)cc2)cc2cn(C)nc12 (single isomer, unassigned) [Example 34b]
6 | 51600 | 4120 | 4.8 | 9.2 | 11.1 | 8.2 | 9.8 | < 100 | Cn1cc2cc(Oc3ccc(C(F)(F)F)cc3)cc(C3C[C@H]3C(=O)N3C[C@@H]4C[C@H]3C[C@@H]4O)c2n1 (single isomer, unassigned) [Example 103f]
7 | – | – | – | 1.0 | 7.7 | 6.0 | 9.8 | 1000 to 30000 | CN(C#N)C(=O)[C@@H]1C[C@H]1c1cc(Oc2ccc(C(F)(F)F)cc2)cc2cn(C)nc12 (single isomer, unassigned) [Example 124]
8 | – | – | – | 9.3 | 9.6 | 9.1 | 11.9 | < 100 | Cn1cc2cc(Oc3ccc(C(F)(F)F)cc3)cc([C@@H]3C[C@H]3C(=O)NCCO)c2n1 (single isomer, unassigned) [Example 125]
9 | – | – | – | 13.9 | 13.7 | 10.9 | 15.8 | < 100 | Cn1cc2cc(Oc3ccc(C(F)(F)F)c(F)c3)cc([C@@H]3C[C@H]3C(=O)N3CC(O)C3)c2n1 (single isomer, unassigned) [Example 132]
10 | – | – | – | 1.5 | 5.8 | 6.8 | 6.0 | < 100 | Cn1cc2cc(Oc3ccc(C(F)(F)F)cc3)cc([C@@H]3C[C@H]3C(=O)N=S(C)(C)=O)c2n1 (single isomer, unassigned) [Example 134]
11 | – | – | – | 18.0 | 6.9 | 25.0 | 25.0 | 100 to 500 | Cn1cc2cc(Oc3ccc(C(F)(F)F)cc3)cc([C@@H]3C[C@H]3C(=O)N3CCC34CC(=O)C4)c2n1 (single isomer, unassigned) [Example 135]
12 | – | – | – | 8.9 | 10.6 | 7.6 | 11.1 | < 100 | Cn1cc2cc(Oc3ccc(C(F)(F)F)c(F)c3)cc([C@@H]3C[C@H]3C(=O)N3C[C@@H]4C[C@H]3C[C@@H]4O)c2n1 (single isomer, unassigned) [Example 140]
13 | – | – | – | 11.4 | 12.0 | 9.3 | 16.2 | < 100 | CN(C)C(=O)[C@@H]1C[C@H]1c1cc(Oc2ccc(C(F)(F)F)c(F)c2)cc2cn(C)nc12 (single isomer, unassigned) [Example 141]

The remaining lines, values behind:

Row | Compound | AUC(0-t) [1] [ng·h/mL] | Cmax [1] [ng/mL] | half-life [1] [h] | TEAD3 ΔTm (TEAD3) [°C] | TEAD4 ΔTm (TEAD4) [°C] | TEAD1 ΔTm (TEAD1) [°C] | TEAD2 ΔTm (TEAD2) [°C] | IC50 (NCI-H226 cells) [nM]
14 | CNC(=O)[C@@H]1CC1c1cc(-c2ccc(C(F)(F)F)cc2)cc2c1cnn2C (mixture of isomers) [Example 24] | 70000 | 5530 | 5.2 | 0.3 | 2.4 | 2.4 | 4.5 | 100 to 500
15 | Cn1cc2cc(Oc3ccc(Cl)cc3)cc([C@@H]3C[C@H]3C(=O)N3C[C@@H]4C[C@H]3C[C@@H]4O)c2n1 (single isomer, unassigned) [Example 139] | – | – | – | 2.8 | 7.6 | 5.5 | 9.2 | < 100
16 | CNC(=O)[C@@H]1CC1c1cc(-c2ccc(C(F)(F)F)cc2)cc2c1cnn2C (stereo partly drawn) [Example 40] | – | – | – | 0.2 | 0.7 | 1.9 | 2.7 | 100 to 500
17 | CNS(=O)(=O)/C=C/c1cc(-c2ccc(C(F)(F)F)cc2)cc2c1cnn2C [Example 41] | – | – | – | 0.7 | 1.4 | 2.1 | 1.2 | < 100
18 | CNS(=O)(=O)CCc1cc(-c2ccc(C(F)(F)F)cc2)cc2c1cnn2C [Example 42] | – | – | – | 3.5 | 3.8 | 7.3 | 4.1 | < 100
19 | CNS(=O)(=O)CCc1cc(-c2ccc(C(F)(F)F)cc2)cc2cn(C)nc12 [Example 44] | 16100 | 2470 | 2.6 | 3.0 | 10 | 9.1 | 7.6 | < 100
20 | CC(=O)NS(=O)(=O)CCc1cc(-c2ccc(C(F)(F)F)cc2)cc2cn(C)nc12 [Example 46] | – | – | – | 7.2 | 11.2 | 10.4 | 10.9 | 1000 to 30000
21 | CNS(=O)(=O)CCCc1cc(-c2ccc(C(F)(F)F)cc2)cc2cn(C)nc12 [Example 47] | – | – | – | −0.8 | 5.7 | 4.7 | 1.9 | 1000 to 30000
22 | CNS(=O)(=O)CCc1cc(N2CCC3(CCCC3)CC2)cc2cn(C)nc12 [Example 48] | – | – | – | 1.9 | 8.4 | 6.3 | 9.4 | 1000 to 30000
23 | CNS(=O)(=O)CCc1cc(Oc2ccc(C(F)(F)F)cc2)cc2cccnc12 [Example 142] | – | – | – | 10.2 | 9.7 | 8.9 | 11.4 | 100 to 500
24 | CNS(=O)(=O)CCc1cc(Oc2ccc(C(F)(F)F)cc2)cc2c1NCCC2 [Example 143] | – | – | – | 10.3 | 8.8 | 9.6 | 13.2 | < 100
